Results published in US20240408081A1, “NOVEL SYNERGISTIC COMBINATIONS AND METHODS OF USE THEREOF FOR TREATING CANCERS” (UNIVERSITE DE BORDEAUX, priority 2021, published 2024).

Tests used:
[1] = system: NEM157i, SU-DIPG-IVi and NEM163i DMG cells; assay: Proliferation / cell viability assay (Sulforhodamine B) in DMG cell lines; type: cell-based, human; conditions: SU-DIPG-IVi and NEM157i; up to 30 μM; absence of GSK-126
Procedure: Cell growth was measured with the In vitro Toxicology Assay kit (Sulforhodamine B, Sigma Aldrich, Saint Quentin Fallavier, France) according to manufacturer's instructions. Cells were plated at a density of 2000 cells per well in 96-well plates in triplicates. Absorbance was measured at 565 nm using the CLARIOstar multiplate reader (BMG Labtech, Champigny-sur-Marne, France) at indicated time points.

[2] = system: NEM157i, NEM163i and primary BXdmg1 cells; assay: DMG cell migration, wound scratch assay (IncuCyte); type: cell-based, human
Procedure: 2×10^4 cells/well were placed in a 96-well and incubated for 24h. An IncuCyte Wound Maker (96-pin wound making tool) was used to make scratches.
Migration was monitored by using the IncuCyte S3 live-cell analysis system (Essen BioScience, Ltd, Royston Hertfordshire, United Kingdom). […] Following functions have been used to optimize visibility of the cells: greyscale mode, bichrome mode, negative, contrast/luminosity, exposition/gamma, negative.

[3] = system: Huh6 and HepG2 hepatoblastoma cells; assay: Growth and viability of hepatoblastoma cells (Huh6 and HepG2), 2D and 3D spheroid; type: cell-based, human
Procedure: (§1) For 2D culture, a total of 2,000 cells/well for Huh6 and 3,000 cells/well for HepG2 were seeded in 96-well microtiter plates. Cell growth was measured at 24 h, 48h, 72h or 96h after genetic manipulation and at 48h or 72h after drug treatment using the in vitro MTS assay Kit or Sulforhodamine B (SRB, Absorbance at 565 nm) assay (Sigma) following manufacturer's instructions. For 3D culture, spheroids were formed as described above and microplates were incubated in an IncuCyte® S3 live cell analysis system and scanned every 8 hours. For genetic manipulation, the lentiviral transductions or the gene depletions were done before the plating. For drug treatments, depending on the experiment and the drug, spheroids were treated at day 4 or 5 for 48h or 72h. Cell viability assay in spheroids was done using 1 μM calcein AM (BioLegend) and 2 μM ethidium homodimer 1 (Sigma) for 30 minutes at 37° C. Spheroids were imaged using an IncuCyte® S3 live cell analysis system. For all cell viability assays, drugs were used at half maximal inhibitory concentration (IC50).

Huh6 and HepG2 cells = assay: Clonogenicity assay; type: cell-based, human; conditions: GSK-126 3 and 4 μM for Huh6 and HepG2; ATR 8 μM; SIM 4 μM; 10 days
Procedure: Huh6 and HepG2 cells were seeded at 500 and 1000 cells/well respectively in 12-well plates. After attachment, cells were treated with drugs.
Following incubation at 37° C. for 10 days, the cells were fixed with 4% PFA and stained with 0.05% crystal violet. Reading under the Fusion FX (Vilber Lourmat).

Huh6 cells = assay: Huh6 tumor xenografts in NSG mice; type: in vivo, NOD/LtSz-scid IL2R gamma null (NSG) mice; conditions: intraperitoneal; GSK-126 50 mg/kg, ATR 20 mg/kg 3-times a week; cisplatin 1 mg/kg twice a week
Procedure: NOD/LtSz-scid IL2R gamma null (NSG) mice were bred in standard conditions compliant with regulatory bodies (French government). Sterilized food and water were accessible ad libitum. One million of Huh6 cells in 50% of Matrigel were subcutaneously injected in a total volume of 100 μl in the right flank of 8- to 9-week-old female mice (26-32 g; APAFIS #32917-2021121316283534 v2, Agreement #B33063916, Ministère de l'Enseignement Supérieur, de la Recherche et de l'Innovation).
Tumor growth was monitored by caliper measurement until tumors reached an average volume of 250 mm3 (at day 12, see arrow). […] The vehicle (PBS with 5% DMSO) was injected 3-times a week. Tumor growth was monitored during 16 additional days until tumors control reached a size of 2000 mm3. Thus, all mice were euthanized. Blood was collected from all euthanatized mice and circulating ASAT, ALAT, creatinine, and urea were measured to evaluate the toxicity of the different treatments on the liver and kidneys.

[4] = rat; cited from earlier work
[5] = system: histone H3K27me3 in breast and prostate cancer cells; conditions: cited from earlier work
HepG2 cells = assay: Cell viability assay (CellTiter 96 AQueous One / MTS) in HepG2; type: cell-based, human
Procedure: as §1

In the case of `COCCNC(=O)Nc1ccc2nc(-c3cccs3)c(-c3cccs3)nc2c1` [ACSS2 inhibitor], the “effect on DMG cell proliferation, inhibitor alone” value (“effect … inhibitor alone” for short) [1] is reported as “no effect”.
With `CC(C)c1c(C(=O)Nc2ccccc2)c(-c2ccccc2)c(-c2ccc(F)cc2)n1CC[C@@H](O)C[C@@H](O)CC(=O)O` [Atorvastatin] the “effect … inhibitor alone” value [1] was “no effect”, the “migration compared to DMSO” value [2] was “slowed” and the “concentration with antitumor effect, statin alone” value ([3]; 72 h) was ≥ 50 µM. For the same molecule, the “proliferation and survival of hepatoblastoma cells (clonogenic cell assay)” value (Huh6 and HepG2 cells) was “little effect” and the “development of hepatoblastoma in mice (tumor volume)” value (Huh6 cells) was “no effect”.
In the case of `CCCc1cc(C)[nH]c(=O)c1CNC(=O)c1cc(-c2ccnc(N3CCN(C)CC3)c2)cc2c1cnn2C(C)C` [GSK343, N-[(6-methyl-2-oxo-4-propyl-1H-pyridin-3-yl)methyl]-6-[2-(4-methylpiperazin-1-yl)pyridin-4-yl]-1-propan-2-ylindazole-4-carboxamide], the clearance [4] is given as “high clearance” and the “histone H3K27me3 level” value [5] is given as “suppress”.
For `Cc1cc(C)c(CNC(=O)c2cc(-c3ccc(N4CCN(C)CC4)nc3)cc3c2cnn3C(C)C)c(=O)[nH]1` [GSK926, N-[(4,6-dimethyl-2-oxo-1H-pyridin-3-yl)methyl]-6-[6-(4-methylpiperazin-1-yl)pyridin-3-yl]-1-propan-2-ylindazole-4-carboxamide], the “histone H3K27me3 level” value [5] is listed as “suppress”.
For `CCC(C)(C)C(=O)O[C@H]1C[C@@H](C)C=C2C=C[C@H](C)[C@H](CC[C@@H]3C[C@@H](O)CC(=O)O3)[C@H]21` [Simvastatin], the “concentration with antitumor effect, statin alone” value ([3]; 72 h) was ≥ 20 µM.
For `CCN(c1cc(-c2ccc(CN3CCOCC3)cc2)cc(C(=O)NCc2c(C)cc(C)[nH]c2=O)c1C)C1CCOCC1` [Tazemetostat, N-[(4,6-dimethyl-2-oxo-1H-pyridin-3-yl)methyl]-3-[ethyl(oxan-4-yl)amino]-2-methyl-5-[4-(morpholin-4-ylmethyl)phenyl]benzamide], the “effective concentrations on growth of hepatoblastoma cells” value ([3]; 48 h) was “above 20 μM” and the “sensitivity of hepatoblastoma cells in presence of Simvastatin or Atorvastatin” value ([3]; 72 h, 8 μM Atorvastatin or 4 μM Simvastatin) was “significantly potentiates”.
In the case of `CN(C/C=C/C#CC(C)(C)C)Cc1cccc2ccccc12` [Terbinafine], the “effect … inhibitor alone” value [1] is reported as “no effect”.
For `N.N.[Cl][Pt][Cl]` [cisplatin], the IC50 (HepG2 cells) was 12 µM and the “development of hepatoblastoma in mice (tumor volume)” value (Huh6 cells) was “impeded tumor growth”.
